Like-named read-outs stand apart in the source and are kept apart here.
System: CD-1 mice
Text: Lethal doses LD10 of a cytostatic active substance determinated in mice is generally considered as being a significative correlation with the maximum tolerated doses (MTD) in man.

O=C1[O][Pt]2([NH]C3CCCCC3[NH]2)[O]C1=O (stereo not drawn) [Example 1, cis-oxalate (trans l-1,2-cyclohexanediamine)-platinum (II)]
LD10 (same solution with addition of oxalic acid at a final concentration of 0.2 mM (second group)): around 14.4 | LD10 (solution of the oxaliplatin active substance alone (first group)): around 18.0 mg/kg
